Assay results published in publication PMC6149849, “Cymantrenyl-Nucleobases: Synthesis, Anticancer, Antitrypanosomal and Antimicrobial Activity Studies” (Molecules : A Journal of Synthetic Chemistry and Natural …, 2017).
Where two headings read alike, the source gives them in different places.

Columns and labels:
[1] = system: SKOV-3 cells; assay: Apoptotic/necrotic cell death, Hoechst 33258/propidium iodide staining, fluorescence microscopy; assay type: cell-based, human; conditions: for increase of apoptotic cells compared to untreated control cells: SKOV-3, 24 h treatment with IC50 concentrations, post-treatment 24 and 48 h; for apoptotic cell fraction predominantly increased: SKOV-3, IC50 concentrations
Experimental: To determine the mode of cell death that was triggered by cymantrene derivatives, appropriately stained SKOV-3 cells were evaluated for morphological changes using fluorescence microscopy. For evaluation of apoptosis and autophagy, cells were stained with Hoechst 33258/propidium iodide to distinguish between live, apoptotic and necrotic cells and reveal condensed chromatin and apoptotic bodies (a hallmark of apoptosis), and with acridine orange to detect the development of acidic vesicular organelles (AVOs—a hallmark of autophagy).
One day prior to the experiments, cells were seeded at the appropriate density into 35 mm diameter dishes. […] At the end of incubation, the medium was aspirated, the cell monolayer was washed twice with pre-warmed PBS, and fresh medium was added. The cells were cultured in drug-free medium for an additional 24 or 48 h to enable them to recover after the exposure to the compounds and to repair any induced damages.
Quantitative analysis of morphological changes that are associated with apoptosis, necrosis, and autophagy were assessed using a fluorescence microscope (Olympus IX70, Tokyo, Japan) at 400× magnification, as described elsewhere. At the indicated time points, cells were washed with PBS, trypsinized, and centrifuged at 1000 rpm (fixed angle rotor, 72× g) for 5 min at 37 °C. The supernatant was removed and the cell pellet (100 µL) was transferred to the Eppendorf tube, mixed with Ho33258 (2 µL, 0.13 mM) and PI (2 µL, 0.23 mM), and incubated for 5 min in the dark at room temperature. At least 300 stained cells were counted in triplicate in each of the three independent experiments. Cells were classified as live, apoptotic, or necrotic on the basis of their morphological and staining characteristics, and each fraction was related to the total cell number.

[2] = system: S. aureus ATCC 29213 (MSSA); assay: Antibacterial liquid microdilution (CLSI M07-A8); assay type: cell-based, Staphylococcus aureus; conditions: 18 to 24 h
[3] = system: MDA-MB-231 (triple negative breast adenocarcinoma); assay: MTT cytotoxicity assay, MDA-MB-231; assay type: cell-based, human
Experimental: (§4) Anticancer activity of cymantrenes was determined using a panel of human cancer cell lines that were derived from solid tumors. […] The inhibitory effect of cymantrene derivatives on cell proliferation and growth was determined based on survival curves and was expressed as IC50 values (concentration required to achieve a 50% decrease in cell viability when compared to the viability of untreated control cells) calculated using GraphPad Prism 4.02 software for Windows (GraphPad Software, San Diego, CA, USA). Cell viability was determined by the MTT microplate spectrophotometric cytotoxicity test.
(§5) Cells were grown as a monolayer in DMEM growth medium, supplemented with 10% FBS, penicillin (10 U/mL) and streptomycin (50 μg/mL), under standard conditions (37 °C, 5% CO2 and 95% air, 100% humidity) and periodically checked for Mycoplasma contamination.
(§6) The cytotoxicity of cymantrene derivatives was evaluated by the MTT microplate methods as described elsewhere [67] by incubating the cells with increasing concentrations of tested compounds for 24 h. Briefly, 0.1 mL of logarithmically growing cells were seeded in a 96-well microplate (5 × 10^4 cells/well) a day before the experiments and after 24 h of culture, tested compounds, dissolved in DMSO, and diluted in culture medium, were added. […] After further incubation for 24 h, the medium was replaced with fresh medium and the cells were allowed to grow for additional 48 h. Then, the medium was aspirated and 0.05 mL of MTT (final concentration of 5 mg/mL medium) added to each well, and the cells were incubated for further 4 h. The absorbance of the product, resulting from the MTT reduction, was read with a microplate reader at 545 nm. The percentage of viable cells was calculated by comparing the absorbance of treated cells with that of the untreated control cells (taken as 100%). The IC50 concentration of each compound was calculated from the cell survival curves using GraphPad Prism 4.02 software for Windows (GraphPad Software, San Diego, CA, USA).

[4] = system: MCF-7 (hormone-responsive breast adenocarcinoma); assay: MTT cytotoxicity assay, MCF-7; assay type: cell-based, human
Experimental: as §4, §5, §6

[5] = system: E. coli ATCC BAA-198 (ESBL); assay: Antibacterial liquid microdilution (CLSI M07-A8); assay type: cell-based, Escherichia coli; conditions: 18 to 24 h
Experimental: (§1) Organometallic compounds play an increasingly important role in the search for new antibacterial agents. We, therefore, thought to investigate also the bactericidal activity of the newly synthesized cymantrenes 1–7, compound C and CymH. The antibacterial activity of the compounds was tested against Gram-positive methicillin-sensitive Staphylococcus aureus (MSSA), methicillin-resistant S. aureus (MRSA), vancomycin-intermediate S. aureus (VISA), S. epidermidis, and Gram-negative Escherichia coli bacterial strains, and expressed as minimal inhibitory concentration (MIC) values (Table 3).
(§2) The antibacterial activity of CymH, 1–7 and C and the reference drugs penicillin G and polymyxin B was tested by the liquid microdilution method under standard conditions using twofold dilution series, as described in the Clinical and Laboratory Standards Institute (CLSI), reference method M07-A8, and expressed as minimal inhibitory concentration (MIC) values. A panel of Gram-positive bacterial strains, S. aureus ATCC® 29213 (sensitive to methicillin, (MSSA)), S. aureus ATCC® 43300 (resistant to methicillin, (MRSA)), S. aureus ATCC 700787™ (intermediate to vancomycin, (VISA)), and S. epidermidis ATCC 12228™, and one Gram-negative, strain E. coli ATCC BAA-198™ (ESBL) were used. In addition, four clinical isolates of S. aureus (MSSA and MRSA) and two clinical isolates of S. epidermidis that were collected from different patients at the Medical University of Warsaw, Poland, were also tested. The bacterial cells were cultivated on tryptic soy agar (TSA) and nutrient agar (NA), according to ATCC recommendations. All of the strains were incubated at 37 °C. Tested compounds were dissolved in DMSO and then serially diluted twofold with cation-adjusted Mueller-Hinton broth (CAMHB). Then, 95 µL of the dilutions were dispensed into microdilution sterile plates (Mar-Four), followed by the addition of 5 µL of bacteria inoculum containing 5 × 10^4 CFU/mL. The final concentrations of the compounds ranged from 512 to 2 µg/mL. Each compound was tested in triplicate, and Penicillin G (8–0.15 µg/mL) and Polymyxin B (256–0.0625 µg/mL) were used as controls. The plates were incubated at 37 °C for 18 to 24 h depending on the bacterial strain. Thereafter, the absorbance was measured at λ = 540 nm and λ = 595 nm using a Spectrostar Omega microplate reader (BMG Labtech, Offenburg, Germany). The MIC value was defined as the lowest concentration of a compound that reduced the growth by 100%.

[6] = system: human myeloid leukemia HL-60 cells; assay: General cytotoxicity, resazurin viability assay
Experimental: (§3) All of the cultures were maintained at 37 °C in a humidified atmosphere containing 5% of CO2. Toxicity assays were performed, as previously described, with some modifications. In brief, trypanosomes and HL-60 cells were seeded at an initial cell density of 10^4/mL and 5 × 10^4/mL, respectively, in 96-well plates in a final volume of 200 μL culture medium containing various concentrations of test compounds dissolved in 100% DMSO. […] The controls contained DMSO alone. In all of the experiments, the final DMSO concentration was 0.9%. After 24 h incubation, 20 µL of a 0.5 mM resazurin solution prepared in PBS was added and the cultures were incubated for a further 48 h. Resazurin is a vital dye that, when being reduced by living cells, changes its colour from blue to pink. Thus, by measuring absorbance, the proliferation of cells can be easily determined. The change in absorbance was read with a microplate reader using a test wavelength of 570 nm and a reference wavelength of 630 nm. GI50 values were calculated by linear interpolation according to the method described by Huber and Koella. MIC values were determined microscopically.

[7] = system: bloodstream forms of T. brucei clone 427-221a; assay: Trypanocidal assay, resazurin viability assay; assay type: cell-based, Trypanosoma brucei; conditions: for GI50: 50% growth inhibition; for MIC and GI50 ratios of cytotoxic to trypanocidal activities: HL-60 / T. brucei; for MIC: concentration at which all cells were killed, determined microscopically; for Selectivity GI50 Ratio / Selectivity MIC Ratio: ratio of cytotoxic (HL-60) to trypanocidal (T. brucei) activity
Experimental: as §3

[8] = system: U87-MG (glioblastoma); assay: MTT cytotoxicity assay, U87-MG; assay type: cell-based, human
Experimental: as §4, §5, §6

[9] = system: Gram-positive bacterial strains, including MRSA and VISA pathogens; assay: Antibacterial activity over the panel of strains (summary statements); assay type: cell-based; conditions: for antibacterial activity in words: reference bacterial strains
Experimental: as §1, §2

[10] = 24 h incubation, MTT, means ± SEM, read-out: cytotoxicity IC50, MDA-MB-231
[11] = 24 h incubation, MTT, means ± SEM, read-out: cytotoxicity IC50, MCF-7
[12] = concentration at which all cells were killed
[13] = read-out: HL-60 GI50, 50% growth inhibition
[14] = 24 h incubation, MTT, means ± SEM, read-out: cytotoxicity IC50, U87-MG

Row | Structure (SMILES) | increase of apoptotic cells compared to untreated control cells [1] | MIC, S. aureus ATCC 29213 (MSSA) [2] [µg/mL] | IC50 [3, 10] [µM] | IC50 [4, 11] [µM] | MIC, E. coli ATCC BAA-198 [5] [µg/mL] | HL-60 MIC [6, 12] [µM] | GI50 [6, 13] [µM] | GI50 [7] [µM] | MIC [7] [µM] | Selectivity GI50 Ratio [7] | Selectivity MIC Ratio [7] | IC50 [8, 14] [µM] | IC50 [3] [µM] | IC50 [4] [µM] | IC50 [8] [µM] | apoptotic cell fraction predominantly increased [1] | antibacterial activity in words [9] | other results
1 | O=c1[nH]c(=O)n(CCC(O)[C]23[CH]4[CH]5[CH]6[CH]2[Mn]5643[P](c2ccccc2)(c2ccccc2)c2ccccc2)cc1F.[C-]#[O+].[C-]#[O+] (racemic) [Compound 3] | only a three-fold increase | >256 | 35.7 ± 1.44 | 57.8 ± 2.89 | >256 | 100 | 30.6 ± 2.6 | 4.27 ± 0.13 | 10 | 7.2 | 10 | 24.9 ± 1.24 |  |  |  |  |  | mitotic cell death ([1]; SKOV-3, morphology): induced extensive mitotic cell death; MIC and GI50 ratios of cytotoxic to trypanocidal activities [7]: 7–13
2 | COC(CCn1cc(F)c(=O)n(C)c1=O)[C]12[CH]3[CH]4[CH]5[CH]1[Mn]4532.[C-]#[O+].[C-]#[O+].[C-]#[O+] (racemic) [Compound 4] | only a three-fold increase | >512 |  |  | >512 |  |  | 29.6 ± 6.8 | 100 | >3.4 | >1 |  | > 150 | > 150 | > 150 |  |  | GI50 [6]: > 100 µM; HL-60 MIC [6]: >100 µM
3 | Nc1ncnc2c1ncn2CCC(O)[C]12[CH]3[CH]4[CH]5[CH]1[Mn]4532[P](c1ccccc1)(c1ccccc1)c1ccccc1.[C-]#[O+].[C-]#[O+] (racemic) [Compound 5] | 9 fold | >256 | 56 ± 2.07 | 102 ± 1.11 | >256 | 100 | 28.7 ± 3 | 3.14 ± 0.31 | 10 | 9.1 | 10 | 54.2 ± 2.71 |  |  |  | early apoptotic cells |  | MIC and GI50 ratios of cytotoxic to trypanocidal activities [7]: 7–13
4 | COC(CCn1cnc2c(N(C)C)ncnc21)[C]12[CH]3[CH]4[CH]5[CH]1[Mn]4532.[C-]#[O+].[C-]#[O+].[C-]#[O+] (racemic) [Compound 6] | 6 fold | >512 |  |  | >512 |  |  | 26.1 ± 1.9 | 100 | 3.6 | >1 |  | > 150 | 111 ± 3.57 | 131 ± 3.53 |  |  | GI50 [6]: 95.2 ± 44.4 µM; HL-60 MIC [6]: >100 µM
5 | Nc1ncnc2c1ncn2CCC(O)[C]12[CH]3[CH]4[CH]5[CH]1[Mn]45321[P](c2ccccc2)(c2ccccc2)CC[P]1(c1ccccc1)c1ccccc1.[C-]#[O+] (racemic) [Compound C] | 9 fold | 32 |  |  | >128 |  |  |  |  |  |  |  | 43.1 ± 1.95 | 104 ± 1.19 | 38.3 ± 1.91 | early apoptotic cells | remarkable potency against all of the Gram-positive bacterial strains | antibacterial activity (range over strains) ([9]; summary range): 8 to 64 µg/mL
6 | CCC(=O)[C]12[CH]3[CH]4[CH]5[CH]1[Mn]4532.[C-]#[O+].[C-]#[O+].[C-]#[O+] (stereo not drawn) [Compound 7, propionylocymantrene] | 9 fold | >512 |  |  | >512 |  |  |  |  |  |  |  | 63 ± 1.32 | > 150 | 83.6 ± 1.18 | late-apoptotic cell fraction | not active | 
7 | O=[C]=[Mn](=[C]=O)(=[C]=O)[CH]1C=CC=C1 [CymH, tricarbonyl(η^5-cyclopentadienyl)manganese, reference compound] |  | >512 | 68.6 ± 1.74 | 86 ± 1.3 | >512 | >100 | > 100 | 44.6 ± 12.3 | 100 | >2.2 | >1 | 84.4 ± 4.22 |  |  |  |  | not active | 
